Molecules are shown by their SMILES.

This assay deals with HDAC enzyme. Kind of assay: Inhibition of Histone Deacetylase Enzymatic Activity (Assay Examples 1 and 2). The format is biochemical. To be noted: HDAC isoform not specified; fluorogenic Boc-Lys(Ac)-AMC or Boc-Lys(trifluoroacetyl)-AMC substrate. On the procedure: The following protocol is used to assay the compounds of the invention. In the assay, the buffer used is 25 mM HEPES, pH 8.0, 137 mM NaCl, 2.7 mM KCl, 1 mM MgCl2 and the subtrate is Boc-Lys(Ac)-AMC in a 50 mM stock solution in DMSO. The enzyme stock solution is 4.08 μg/mL in buffer.
The compounds are pre-incubated (2 μl in DMSO diluted to 13 μl in buffer for transfer to assay plate) with enzyme (20 μl of 4.08 μg/ml) for 10 minutes at room temperature (35 μl pre-incubation volume). The mixture is pre-incubated for 5 minutes at room temperature. The reaction is started by bringing the temperature to 37° C. and adding 16 μl substrate. Total reaction volume is 50 μl. The reaction is stopped after 20 minutes by addition of 50 μl developer, prepared as directed by Biomol (Fluor-de-Lys developer, Cat. #KI-105). A plate is incubated in the dark for 10 minutes at room temperature before reading (λEx=360 nm, λEm=470 nm, Cutoff filter at 435 nm).
Alternatively, HDAC inhibitory activity was determined using the following assay.
A 30 mM stock of Boc-Lys(trifluoroacetyl)-AMC substrate is prepared in DMSO. 2 μL of test compound in DMSO is diluted to 50 μL in buffer (25 mM HEPES, pH 8.0, 137 mM NaCl, 2.7 mM KCl, 1 mM MgCl2, 0.1% BSA) and pre-incubated with HDAC enzyme (30 μL of a final enzyme concentration of 0.1-0.2 nM) for 10 minutes at room temperature. Reaction is started by adding 18 μL Boc-Lys(trifluoroacetyl)-AMC substrate and incubating at 37° C. for 20-30 minutes. The reaction is stopped by adding 50 μL trypsin (1 mg/mL) and a known HDAC inhibitor (such as LAQ-824). The plate is then incubated in the dark for 20 minutes at room temperature and read with Ex=360 nm, Em=470 nm, cutoff filter at 435 nm.
In the table, A≦0.2 μM; 0.2 μM<B≦0.5 μM; […]; and 1 μM<D≦6 μM.
Usually IC50 stands for the concentration needed to halve the response being measured. A low value points to greater potency. `NS(=O)(=O)NCCCCCC(=O)Nc1cccc(-c2ccccc2)c1` [Compound 4, N-(Biphenyl-3-yl)-6-(sulfamoylamino)hexanamide] showed an IC50 of at most 0.2 µM.
In the case of `CC(=O)N[C@@H](CCCCNS(N)(=O)=O)C(=O)Nc1cccc2cccnc12` [Compound 34, (S)-2-Acetamido-N-(quinolin-8-yl)-6-(sulfamoylamino)hexanamide], the half-inhibitory concentration (IC50) is at most 0.2 µM.
In the case of `COc1cc(NC(=O)CCCCCNS(N)(=O)=O)c2ncccc2c1` [Compound 40, N-(6-methoxy-quinolin-8-yl)-6-(sulfamoyl-amino)-hexanamide] it was at most 0.2 µM.
Under `NS(=O)(=O)NCCCC[C@H](NC(=O)c1cc2ccccc2o1)C(=O)Nc1cccc2cccnc12` [Compound 51, (S)-N-(1-oxo-1-(quinolin-8-ylamino)-6-(sulfamoyl-amino)-hexan-2-yl)-benzofuran-2-carboxamide] stands 0.2 to 0.5 µM; under `NS(=O)(=O)NCCCC[C@H](NC(=O)OCc1ccccc1)C(=O)Nc1cccc2cccnc12` [Compound 55, (S)-benzyl 1-oxo-1-(quinolin-8-ylamino)-6-(sulfamoyl-amino)-hexan-2-ylcarbamate], at most 0.2 µM; under `NS(=O)(=O)NCCCC[C@H](NC(=O)OCc1ccccc1)C(=O)Nc1nc(-c2ccccc2)cs1` [Compound 60, (S)-benzyl 1-oxo-1-(4-phenylthiazol-2-ylamino)-6-(sulfamoyl-amino)-hexan-2-ylcarbamate], at most 0.2 µM.
Under `COc1ccc2[nH]c(C)c(CC(=O)N[C@@H](CCCCNS(N)(=O)=O)C(=O)Nc3cccc4cccnc34)c2c1` [Compound 62, (S)-2-(2-(5-methoxy-2-methyl-1H-indol-3-yl)acetamido)-N-(quinolin-8-yl)-6-(sulfamoyl-amino)-hexanamide] stands 0.2 to 0.5 µM.
Regarding `NS(=O)(=O)NCCCCCC(=O)Nc1cc(OCc2ccccn2)cc2cccnc12` [Compound 79, N-(6-(pyridin-2-ylmethoxy)-quinolin-8-yl)-6-(sulfa-moylamino)-hexanamide], the IC50 was at most 0.2 µM.
Under `COc1ccc(S(=O)(=O)N[C@@H](CCCCNS(N)(=O)=O)C(=O)Nc2cccc3cccnc23)cc1OC` [Compound 201, (S)-2-(3,4-dimethoxyphenylsulfonamido)-N-(quinolin-8-yl)-6-(sulfamoylamino)hexanamide] stands 0.2 to 0.5 µM; under `NS(=O)(=O)NCCCC[C@H](NC(=O)NCc1ccccc1)C(=O)Nc1cccc2cccnc12` [Compound 203, (S)-2-(3-benzylureido)-N-(quinolin-8-yl)-6-(sulfamoylamino)hexanamide], 0.2 to 0.5 µM; under `COc1ccc(C(=O)N[C@@H](CCCCNS(N)(=O)=O)C(=O)Nc2cccc3cccnc23)cc1OC` [Compound 207, (S)-3,4-dimethoxy-N-(1-oxo-1-(quinolin-8-ylamino)-6-(sulfamoyl-amino)hex-an-2-yl)-benzamide], 0.2 to 0.5 µM.
Under `NS(=O)(=O)NCCCC[C@H](NC(=O)c1cccc2cccnc12)C(=O)Nc1cccc2cccnc12` [Compound 209, (S)-N-(1-oxo-1-(quinolin-8-ylamino)-6-(sulfamoyl-amino)hex-an-2-yl)-quinoline-8-carboxamide] stands 0.2 to 0.5 µM; under `NS(=O)(=O)NCCCC[C@H](NC(=O)Nc1ccccc1)C(=O)Nc1cccc2cccnc12` [Compound 211, (S)-2-(3-phenyl-ureido)-N-(quinolin-8-yl)-6-(sulfa-moylamino)-hexanamide], at most 0.2 µM; under `NS(=O)(=O)NCCCC[C@H](NC(=O)Cc1ccccc1)C(=O)Nc1nc(-c2ccccc2)cs1` [Compound 230a, (S)-2-(2-phenylacetamido)-N-(4-phenylthiazol-2-yl)-6-(sulfamoylamino)hexanamide], at most 0.2 µM.
For the compound `NS(=O)(=O)NCCCC[C@H](NC(=O)NCc1ccc(F)cc1)C(=O)Nc1nc(-c2ccccc2)cs1` [Compound 240, (S)-2-(3-(4-fluoro-benzyl)-ureido)-N-(4-phenyl-thiazol-2-yl)-6-(sulfa-moylamino)-hexanamide], the half-maximal inhibitory concentration (IC50) lay in the range of 0.2 to 0.5 µM.
In the case of `NS(=O)(=O)NCCCC[C@H](NC(=O)OCc1cccc(Cl)c1)C(=O)Nc1nc(-c2ccccc2)cs1` [Compound 242, (S)-3-chlorobenzyl 1-oxo-1-(4-phenyl-thiazol-2-ylamino)-6-(sulfa-moylamino)-hexan-2-ylcarbamate] it was at most 0.2 µM.
In the case of `CCOC(=O)N[C@@H](CCCCNS(N)(=O)=O)C(=O)Nc1nc(-c2ccccc2)cs1` [Compound 252, (S)-ethyl 1-oxo-1-(4-phenylthiazol-2-ylamino)-6-(sulfamoylamino)hexan-2-ylcarbamate] it was 0.2 to 0.5 µM; in that of `COc1cc(NC(=O)[C@H](CCCCNS(N)(=O)=O)NC(=O)OCc2ccccc2)c2ncccc2c1` [Compound 270, (S)-benzyl 1-(6-methoxy-quinolin-8-ylamino)-1-oxo-6-(sulfamoyl-amino)-hexan-2-ylcarbamate], at most 0.2 µM.
As for `NS(=O)(=O)NCCCC[C@H](NC(=O)OCc1ccccc1)C(=O)Nc1cnc2ccccc2c1` [Compound 274, (S)-benzyl 1-oxo-1-(quinolin-3-ylamino)-6-(sulfamoyl-amino)-hexan-2-ylcarbamate], the half-inhibitory concentration (IC50) is at most 0.2 µM.
Under `COc1ccc(-c2nc(NC(=O)[C@H](CCCCNS(N)(=O)=O)NC(=O)OCc3ccccc3)sc2C)cc1` [Compound 289, (S)-benzyl 1-(4-(4-methoxy-phenyl)-5-methyl-thiazol-2-ylamino)-1-oxo-6-(sulfamoyl-amino)-hexan-2-ylcarbamate] stands 0.2 to 0.5 µM; under `NS(=O)(=O)NCCCC[C@H](NC(=O)OCc1ccccc1)C(=O)Nc1nc(-c2ccc(C(F)(F)F)cc2)cs1` [Compound 308, (S)-benzyl 1-oxo-6-(sulfamoyl-amino)-1-(4-(4-(trifluoro-methyl)-phenyl)-thiazol-2-ylamino)-hexan-2-ylcarbamate], at most 0.2 µM; under `COc1cccc(-c2csc(NC(=O)[C@H](CCCCNS(N)(=O)=O)NC(=O)OCc3ccccc3)n2)c1` [Compound 309, (S)-benzyl 1-(4-(3-methoxy-phenyl)-thiazol-2-ylamino)-1-oxo-6-(sulfamoyl-amino)-hexan-2-ylcarbamate], 0.2 to 0.5 µM.
Under `NS(=O)(=O)NCCCC[C@H](NC(=O)OCc1ccccc1)C(=O)Nc1cccc(-c2ccccc2)c1` [Compound 310, (S)-benzyl 1-(biphenyl-3-ylamino)-1-oxo-6-(sulfamoyl-amino)-hexan-2-ylcarbamate] stands at most 0.2 µM.
Turning to `NS(=O)(=O)NCCCC[C@H](NC(=O)OCc1ccccc1)C(=O)Nc1nc(C(=O)Nc2ccccc2)cs1` [Compound 313, (S)-benzyl 1-oxo-1-(4-(phenyl-carbamoyl)-thiazol-2-ylamino)-6-(sulfamoyl-amino)-hexan-2-ylcarbamate], the half-inhibitory concentration (IC50) was at most 0.2 µM.
`COc1ccc(NC(=O)c2csc(NC(=O)[C@H](CCCCNS(N)(=O)=O)NC(=O)OCc3ccccc3)n2)cc1` [Compound 314, (S)-benzyl 1-(4-(4-methoxy-phenyl-carbamoyl)-thiazol-2-ylamino)-1-oxo-6-(sulfamoyl-amino)-hexan-2-ylcarbamate] yielded an IC50 of at most 0.2 µM.
Compound `NS(=O)(=O)NCCCC[C@H](NC(=O)OCc1ccccc1)C(=O)Nc1nc(-c2ccc(F)cc2)cs1` [Compound 318, (S)-benzyl 1-(4-(4-fluoro-phenyl)-thiazol-2-ylamino)-1-oxo-6-(sulfamoyl-amino)-hexan-2-ylcarbamate] had a half-maximal inhibitory concentration (IC50) of 0.2 to 0.5 µM.

Source of the values: patent US20070293530A1, “SULFAMIDE AND SULFAMATE DERIVATIVES AS HISTONE DEACETYLASE INHIBITORS” (METHYLGENE INC., priority 2006, published 2007).
